Values quoted from earlier work in patent US8846084B2, “Controlled release compositions containing zolpidem” (Wockhardt Ltd, priority 2005, dated 2014).

Biological target: T1, (BZ)1 receptor (Homo sapiens, UniProt P14867+P18507)
T1 sequence (P14867 28-456): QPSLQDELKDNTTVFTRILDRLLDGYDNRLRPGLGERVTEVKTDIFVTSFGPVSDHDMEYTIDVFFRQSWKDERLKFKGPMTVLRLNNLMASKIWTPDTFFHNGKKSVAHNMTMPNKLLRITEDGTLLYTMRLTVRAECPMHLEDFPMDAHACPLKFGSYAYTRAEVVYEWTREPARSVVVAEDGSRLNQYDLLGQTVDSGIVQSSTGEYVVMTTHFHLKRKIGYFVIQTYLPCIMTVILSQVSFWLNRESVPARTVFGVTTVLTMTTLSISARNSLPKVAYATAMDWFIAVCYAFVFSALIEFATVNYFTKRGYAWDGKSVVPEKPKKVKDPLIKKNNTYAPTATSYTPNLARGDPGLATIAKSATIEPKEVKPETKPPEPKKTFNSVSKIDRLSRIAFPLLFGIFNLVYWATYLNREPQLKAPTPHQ
T1 sequence (P18507 40-467 limits assumed): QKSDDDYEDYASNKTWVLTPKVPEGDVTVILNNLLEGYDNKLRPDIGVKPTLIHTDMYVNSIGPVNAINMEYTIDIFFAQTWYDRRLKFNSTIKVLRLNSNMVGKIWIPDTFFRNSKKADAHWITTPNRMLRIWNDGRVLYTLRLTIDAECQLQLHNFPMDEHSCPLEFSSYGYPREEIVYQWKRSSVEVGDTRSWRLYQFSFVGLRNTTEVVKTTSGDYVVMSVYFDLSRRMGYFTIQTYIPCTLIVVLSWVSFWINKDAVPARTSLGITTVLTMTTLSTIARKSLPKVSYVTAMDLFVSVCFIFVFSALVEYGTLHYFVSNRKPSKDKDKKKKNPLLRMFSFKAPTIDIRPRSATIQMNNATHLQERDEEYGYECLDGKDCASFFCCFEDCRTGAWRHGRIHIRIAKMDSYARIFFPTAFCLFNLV
T1 sequence (P47870 25-512 partner limits assumed): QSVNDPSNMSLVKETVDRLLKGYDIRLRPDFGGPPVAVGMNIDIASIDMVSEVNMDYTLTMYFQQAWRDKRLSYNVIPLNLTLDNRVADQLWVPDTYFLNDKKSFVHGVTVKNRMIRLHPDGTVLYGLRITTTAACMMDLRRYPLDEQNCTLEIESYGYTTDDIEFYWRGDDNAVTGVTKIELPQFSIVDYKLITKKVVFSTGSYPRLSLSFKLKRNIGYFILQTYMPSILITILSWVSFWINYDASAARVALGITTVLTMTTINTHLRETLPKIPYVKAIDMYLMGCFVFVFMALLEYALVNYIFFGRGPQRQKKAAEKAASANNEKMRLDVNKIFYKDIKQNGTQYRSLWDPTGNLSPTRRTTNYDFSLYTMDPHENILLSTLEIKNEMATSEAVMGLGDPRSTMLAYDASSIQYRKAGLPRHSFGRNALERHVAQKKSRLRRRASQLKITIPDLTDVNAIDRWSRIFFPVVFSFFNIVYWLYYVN
Details: in vitro; affinity ratio of the α1-subunits/α5-subunits

Question: For `Cc1ccc(-c2nc3ccc(C)cn3c2CC(=O)N(C)C)cc1` [zolpidem, N,N,6-trimethyl-2-p-tolylimidazo[1,2-a]pyridine-3-acetamide], which “receptor subtype binding preference” value is on record?
Answer: binds the (BZ)1 receptor preferentially with a high affinity ratio
